Activity calls are given as the source filed them.
Legend:
[1] = Counterscreen for activators of the function of SWI/SNF related, matrix associated, actin dependent regulator of chromatin, subfamily a, member 2 (SMARCA2, BRM): Luminescence-based cell-based high throughput dose response assay to identify non-selective compounds using the VP16 reporter assay.; type: functional
[2] = biological target: SWI/SNF-related matrix-associated actin-dependent regulator of chromatin subfamily A member 2 (Homo sapiens, UniProt P51531); experiment: Luminescence-based cell-based high throughput dose response assay to identify activators of the function of SWI/SNF related, matrix associated, actin dependent regulator of chromatin, subfamily a, member 2 (SMARCA2, BRM).; type: functional
[3] = biological target: T1, Corticotropin-releasing factor receptor 2/Corticotropin-releasing factor-binding protein (Homo sapiens, UniProt P24387+Q13324); experiment: activators of CRF receptor 2 with binding protein – uHTS hits, confirmation (AID 602473); type: functional; conditions: read-out: EC50_Mean
T1 sequence (Q13324 whole entry): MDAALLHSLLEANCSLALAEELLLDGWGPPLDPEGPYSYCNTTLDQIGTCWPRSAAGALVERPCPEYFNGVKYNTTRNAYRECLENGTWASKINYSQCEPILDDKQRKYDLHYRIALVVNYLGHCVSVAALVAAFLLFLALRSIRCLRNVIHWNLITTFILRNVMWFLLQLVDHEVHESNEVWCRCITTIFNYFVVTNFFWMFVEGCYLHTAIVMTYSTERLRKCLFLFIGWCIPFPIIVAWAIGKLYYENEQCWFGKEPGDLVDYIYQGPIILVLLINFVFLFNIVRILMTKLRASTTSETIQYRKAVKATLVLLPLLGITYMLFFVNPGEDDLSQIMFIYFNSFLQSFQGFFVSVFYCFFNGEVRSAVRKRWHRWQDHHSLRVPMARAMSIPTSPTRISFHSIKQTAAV
T1 sequence (P24387 whole entry): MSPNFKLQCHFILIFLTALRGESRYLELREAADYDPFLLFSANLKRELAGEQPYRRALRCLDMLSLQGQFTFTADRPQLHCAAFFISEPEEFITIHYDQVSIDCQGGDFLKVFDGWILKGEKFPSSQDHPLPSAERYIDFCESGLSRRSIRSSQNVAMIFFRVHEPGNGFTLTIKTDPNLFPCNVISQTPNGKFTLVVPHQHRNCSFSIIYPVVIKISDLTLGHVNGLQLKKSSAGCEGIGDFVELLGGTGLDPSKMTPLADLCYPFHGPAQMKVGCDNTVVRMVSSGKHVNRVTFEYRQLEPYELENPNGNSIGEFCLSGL

[4] = biological target: T2, Long-chain-fatty-acid--AMP ligase FadD28 (Mycobacterium tuberculosis, UniProt P9WQ59); experiment: Fluorescence polarization aasay to screen for inhibitors that compete for the binding of FadD28 to a bisubstrate Measured in Biochemical System Using Plate Reader - 2147-01_Inhibitor_Dose_CherryPick_Activity.; type: functional, Mycobacterium tuberculosis H37Rv
T2 sequence (P9WQ59 whole entry): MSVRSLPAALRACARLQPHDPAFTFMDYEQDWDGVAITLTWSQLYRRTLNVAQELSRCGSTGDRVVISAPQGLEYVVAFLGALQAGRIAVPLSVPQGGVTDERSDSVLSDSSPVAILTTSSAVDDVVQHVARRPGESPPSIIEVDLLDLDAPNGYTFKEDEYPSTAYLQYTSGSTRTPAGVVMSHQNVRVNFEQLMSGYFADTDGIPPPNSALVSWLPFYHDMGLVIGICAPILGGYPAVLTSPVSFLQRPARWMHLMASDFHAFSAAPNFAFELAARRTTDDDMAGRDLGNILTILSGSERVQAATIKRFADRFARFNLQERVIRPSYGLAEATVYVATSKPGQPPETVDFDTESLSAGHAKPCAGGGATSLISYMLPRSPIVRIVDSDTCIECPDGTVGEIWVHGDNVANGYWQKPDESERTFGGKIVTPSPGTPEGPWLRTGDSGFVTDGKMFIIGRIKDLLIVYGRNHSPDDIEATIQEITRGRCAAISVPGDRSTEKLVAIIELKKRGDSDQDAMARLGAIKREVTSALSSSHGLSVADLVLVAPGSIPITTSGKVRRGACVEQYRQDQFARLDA

[5] = biological target: Genome polyprotein (dengue virus type 2, UniProt P29990); experiment: Dengue-2 NS5 methyltransferase inhibitors, primary screen, biochemical, confirmation dose response (AID 588689); type: functional
[6] = biological target: T1, Corticotropin-releasing factor receptor 2/Corticotropin-releasing factor-binding protein; experiment: Dose Response confirmation of uHTS hits for small molecule antagonists of the CRF-binding protein and CRF-R2 receptor complex.; type: functional; conditions: read-out: IC50_Mean
[7] = CRF-BP/CRF-R2 complex antagonists, dose response, cell-based, uHTS hits, 384-well (AID 651639); type: functional, Homo sapiens; conditions: read-out: IC50_Mean
[8] = biological target: T3, Aminopeptidase N (Plasmodium falciparum FcB1/Columbia, UniProt O96935); experiment: P. falciparum M1AAP inhibitors, biochemical, fluorogenic H-Leu-NHMec substrate, 1536-well (AID 1445); set-up: species or system Plasmodium falciparum 3D7, 3D7
T3 sequence (O96935 whole entry): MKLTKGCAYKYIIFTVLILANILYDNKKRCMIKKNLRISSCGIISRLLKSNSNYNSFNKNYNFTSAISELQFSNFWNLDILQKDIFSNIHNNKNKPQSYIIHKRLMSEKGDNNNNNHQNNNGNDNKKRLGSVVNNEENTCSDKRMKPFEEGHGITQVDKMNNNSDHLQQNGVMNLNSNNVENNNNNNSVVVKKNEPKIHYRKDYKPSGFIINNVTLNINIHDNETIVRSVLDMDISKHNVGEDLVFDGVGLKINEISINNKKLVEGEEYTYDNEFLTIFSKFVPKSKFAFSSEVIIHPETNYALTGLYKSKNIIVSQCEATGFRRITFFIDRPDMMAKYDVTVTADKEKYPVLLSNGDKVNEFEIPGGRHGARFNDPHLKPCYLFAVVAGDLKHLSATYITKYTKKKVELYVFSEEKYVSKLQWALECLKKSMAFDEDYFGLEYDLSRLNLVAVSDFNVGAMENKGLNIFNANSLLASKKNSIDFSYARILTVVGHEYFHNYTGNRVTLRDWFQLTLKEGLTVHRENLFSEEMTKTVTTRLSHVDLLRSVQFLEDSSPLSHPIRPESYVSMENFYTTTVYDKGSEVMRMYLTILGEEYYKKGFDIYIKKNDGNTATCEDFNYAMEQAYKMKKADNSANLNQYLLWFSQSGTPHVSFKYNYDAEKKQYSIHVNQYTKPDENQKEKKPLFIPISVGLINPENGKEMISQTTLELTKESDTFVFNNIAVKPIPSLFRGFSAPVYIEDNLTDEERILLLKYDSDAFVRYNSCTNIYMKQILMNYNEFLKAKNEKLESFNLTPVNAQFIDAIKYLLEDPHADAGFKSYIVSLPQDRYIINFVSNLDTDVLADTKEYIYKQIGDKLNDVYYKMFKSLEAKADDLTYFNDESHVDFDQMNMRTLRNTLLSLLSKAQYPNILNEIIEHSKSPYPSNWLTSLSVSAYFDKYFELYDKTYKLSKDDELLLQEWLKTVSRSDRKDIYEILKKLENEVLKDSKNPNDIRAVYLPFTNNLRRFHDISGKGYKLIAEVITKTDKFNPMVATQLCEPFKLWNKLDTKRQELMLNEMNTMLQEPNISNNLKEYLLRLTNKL

[9] = biological target: T4, Trace amine-associated receptor 1 (Homo sapiens, UniProt Q96RJ0); experiment: Counterscreen for antagonists of the human trace amine associated receptor 1 (hTAAR1): Fluorescence-based cell-based high throughput dose response assay to identify TAAR1 Agonists.; type: functional
T4 sequence (Q96RJ0 whole entry): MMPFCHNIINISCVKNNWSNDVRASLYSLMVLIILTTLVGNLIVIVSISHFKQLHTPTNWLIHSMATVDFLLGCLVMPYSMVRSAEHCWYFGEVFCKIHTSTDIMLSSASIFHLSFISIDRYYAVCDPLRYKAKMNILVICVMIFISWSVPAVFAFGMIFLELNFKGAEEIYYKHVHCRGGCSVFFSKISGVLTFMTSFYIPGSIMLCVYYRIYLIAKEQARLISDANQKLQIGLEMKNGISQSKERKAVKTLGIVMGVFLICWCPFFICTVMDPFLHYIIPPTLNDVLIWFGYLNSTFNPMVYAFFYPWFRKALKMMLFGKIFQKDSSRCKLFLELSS

[10] = biological target: T4, Trace amine-associated receptor 1; experiment: Fluorescence-based cell-based high throughput dose response assay to identify antagonists of the human trace amine associated receptor 1 (TAAR1).; type: functional
[11] = Counterscreen for antagonists of the human trace amine associated receptor 1 (hTAAR1): Fluorescence-based cell-based high throughput dose response assay to identify nonselective Ga16 antagonists.; type: functional
[12] = Counterscreen for […] of the human trace amine associated receptor 1 (TAAR1): Fluorescence-based cell-based high throughput dose response assay to identify nonselective Ga16 agonists.; type: functional
[13] = biological target: T4, Trace amine-associated receptor 1; experiment: Fluorescence-based cell-based high throughput dose response assay to identify agonists of the human trace amine associated receptor 1 (TAAR1).; type: functional
[14] = cells; type: functional, cell-based
[15] = biological target: T4, Trace amine-associated receptor 1; experiment: Counterscreen for agonists of the human trace amine associated receptor 1 (hTAAR1): Fluorescence-based cell-based high throughput dose response assay to identify hTAAR1 agonist that also desensitize TAAR1 receptor response.; type: functional
[16] = cells; type: functional, cell-based; remark: listed apart in the source
[17] = biological target: Mu-type opioid receptor (Homo sapiens, UniProt P35372); type: functional, cell-based;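 further: U2OS cells with beta-arrestin recruitment to OPRM1 by beta-gal complementation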
[18] = biological target: 5-hydroxytryptamine receptor 2A (Mus musculus, UniProt P35363); type: functional, cell-based;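 further: CHO-K1 cells with tagged receptor and beta-arrestin; agonist potency measured as compound-induced activation of the receptor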
Sequence of 5-hydroxytryptamine receptor 2A (P35363 whole entry): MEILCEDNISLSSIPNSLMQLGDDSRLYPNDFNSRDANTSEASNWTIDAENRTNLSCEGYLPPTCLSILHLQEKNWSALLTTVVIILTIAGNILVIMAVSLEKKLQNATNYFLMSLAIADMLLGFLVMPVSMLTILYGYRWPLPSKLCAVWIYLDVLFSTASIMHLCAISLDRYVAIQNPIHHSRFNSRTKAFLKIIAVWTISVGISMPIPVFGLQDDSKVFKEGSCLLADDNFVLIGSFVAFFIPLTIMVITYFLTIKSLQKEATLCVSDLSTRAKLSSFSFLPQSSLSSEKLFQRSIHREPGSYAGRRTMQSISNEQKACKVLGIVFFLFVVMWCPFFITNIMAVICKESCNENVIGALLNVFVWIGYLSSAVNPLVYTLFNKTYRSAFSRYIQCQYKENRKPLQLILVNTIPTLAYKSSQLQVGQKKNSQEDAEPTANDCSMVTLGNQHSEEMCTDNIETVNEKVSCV

Sequence of SWI/SNF-related matrix-associated actin-dependent regulator of chromatin subfamily A member 2 (P51531 whole entry): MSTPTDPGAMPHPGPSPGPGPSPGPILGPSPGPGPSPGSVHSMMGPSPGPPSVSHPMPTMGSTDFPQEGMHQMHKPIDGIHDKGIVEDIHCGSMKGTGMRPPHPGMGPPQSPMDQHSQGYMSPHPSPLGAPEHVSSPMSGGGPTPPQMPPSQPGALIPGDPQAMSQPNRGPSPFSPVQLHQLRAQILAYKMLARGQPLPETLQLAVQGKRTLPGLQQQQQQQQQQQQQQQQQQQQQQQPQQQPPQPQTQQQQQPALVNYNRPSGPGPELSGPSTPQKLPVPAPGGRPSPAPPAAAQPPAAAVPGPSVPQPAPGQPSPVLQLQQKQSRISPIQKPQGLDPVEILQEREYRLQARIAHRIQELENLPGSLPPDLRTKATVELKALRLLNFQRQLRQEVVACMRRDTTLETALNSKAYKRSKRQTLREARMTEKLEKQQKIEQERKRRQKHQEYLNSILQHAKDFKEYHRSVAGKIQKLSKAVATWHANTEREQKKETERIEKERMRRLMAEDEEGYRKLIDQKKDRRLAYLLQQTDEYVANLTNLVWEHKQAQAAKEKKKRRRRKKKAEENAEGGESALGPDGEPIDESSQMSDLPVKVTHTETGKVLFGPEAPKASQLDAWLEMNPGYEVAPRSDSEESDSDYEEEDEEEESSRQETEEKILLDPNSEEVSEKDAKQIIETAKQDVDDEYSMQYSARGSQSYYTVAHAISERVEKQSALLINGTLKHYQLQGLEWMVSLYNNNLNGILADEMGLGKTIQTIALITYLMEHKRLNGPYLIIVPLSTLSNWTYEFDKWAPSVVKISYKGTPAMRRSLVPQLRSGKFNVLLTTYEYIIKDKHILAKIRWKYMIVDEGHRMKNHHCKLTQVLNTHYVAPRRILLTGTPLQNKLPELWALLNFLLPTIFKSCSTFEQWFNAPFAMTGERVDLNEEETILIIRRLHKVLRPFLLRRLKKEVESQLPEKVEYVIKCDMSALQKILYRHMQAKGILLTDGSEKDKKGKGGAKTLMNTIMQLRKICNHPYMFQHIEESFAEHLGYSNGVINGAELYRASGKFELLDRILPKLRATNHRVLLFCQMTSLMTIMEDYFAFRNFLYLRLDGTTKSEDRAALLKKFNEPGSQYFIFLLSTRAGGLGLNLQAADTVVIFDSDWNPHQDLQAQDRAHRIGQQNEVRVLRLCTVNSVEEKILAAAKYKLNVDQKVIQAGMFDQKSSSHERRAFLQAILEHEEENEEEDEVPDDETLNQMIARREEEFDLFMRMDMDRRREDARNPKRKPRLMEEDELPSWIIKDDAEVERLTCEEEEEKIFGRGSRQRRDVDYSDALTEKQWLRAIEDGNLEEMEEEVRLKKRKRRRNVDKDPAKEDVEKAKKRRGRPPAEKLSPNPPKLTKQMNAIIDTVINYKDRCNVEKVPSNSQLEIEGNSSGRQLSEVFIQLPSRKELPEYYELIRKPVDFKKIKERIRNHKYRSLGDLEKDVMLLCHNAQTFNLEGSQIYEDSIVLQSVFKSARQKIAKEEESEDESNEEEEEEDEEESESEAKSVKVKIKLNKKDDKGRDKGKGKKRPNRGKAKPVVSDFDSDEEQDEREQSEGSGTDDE
Sequence of Mu-type opioid receptor (P35372 whole entry): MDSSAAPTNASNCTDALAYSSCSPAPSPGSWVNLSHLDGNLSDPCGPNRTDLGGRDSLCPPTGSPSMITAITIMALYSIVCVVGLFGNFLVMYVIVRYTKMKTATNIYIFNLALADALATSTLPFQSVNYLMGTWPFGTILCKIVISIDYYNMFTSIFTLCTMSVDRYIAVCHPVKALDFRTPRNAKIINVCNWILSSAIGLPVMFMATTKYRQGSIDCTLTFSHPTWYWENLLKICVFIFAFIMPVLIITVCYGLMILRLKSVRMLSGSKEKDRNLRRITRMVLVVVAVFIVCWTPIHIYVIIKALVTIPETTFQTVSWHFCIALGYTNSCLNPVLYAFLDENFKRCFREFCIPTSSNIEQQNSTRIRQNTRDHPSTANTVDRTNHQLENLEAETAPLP
Sequence of Genome polyprotein (P29990 2492-3391 limits assumed): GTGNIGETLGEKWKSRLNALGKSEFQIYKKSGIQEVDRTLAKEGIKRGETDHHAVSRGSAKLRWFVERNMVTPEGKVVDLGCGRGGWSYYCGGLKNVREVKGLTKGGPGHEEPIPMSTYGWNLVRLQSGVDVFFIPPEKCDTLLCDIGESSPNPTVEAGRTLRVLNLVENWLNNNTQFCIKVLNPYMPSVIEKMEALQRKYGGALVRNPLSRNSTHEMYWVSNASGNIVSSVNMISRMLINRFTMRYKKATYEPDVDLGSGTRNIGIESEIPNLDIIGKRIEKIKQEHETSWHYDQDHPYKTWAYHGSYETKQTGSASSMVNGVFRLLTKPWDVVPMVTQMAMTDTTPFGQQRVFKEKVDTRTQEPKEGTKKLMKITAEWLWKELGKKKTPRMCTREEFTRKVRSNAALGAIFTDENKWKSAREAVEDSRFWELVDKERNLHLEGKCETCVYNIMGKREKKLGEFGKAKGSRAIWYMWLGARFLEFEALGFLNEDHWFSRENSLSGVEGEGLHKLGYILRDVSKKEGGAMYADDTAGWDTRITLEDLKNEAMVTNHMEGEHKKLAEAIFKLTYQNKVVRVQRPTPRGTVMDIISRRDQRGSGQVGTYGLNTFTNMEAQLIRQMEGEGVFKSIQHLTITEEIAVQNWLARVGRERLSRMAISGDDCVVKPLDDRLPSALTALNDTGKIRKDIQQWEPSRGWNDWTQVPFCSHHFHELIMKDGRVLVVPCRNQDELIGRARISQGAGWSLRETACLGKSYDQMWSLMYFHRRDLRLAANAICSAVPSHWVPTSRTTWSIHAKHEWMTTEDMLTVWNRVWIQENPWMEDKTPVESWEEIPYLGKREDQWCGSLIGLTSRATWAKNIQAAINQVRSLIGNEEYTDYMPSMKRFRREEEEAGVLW

**Q.** For `O=C(COC(=O)c1nc(Cl)c(Cl)c(Cl)c1Cl)NCc1ccccc1`, which EC50 [1] is on record?
**A.** Its EC50 is > 91.1 µM (inactive).

**Q.** And the EC50 [2]?
**A.** Its EC50 is > 91.1 µM (inactive).

**Q.** Which EC50 [3] does the source give for `C=CCOc1ccc(/C=C2\SC(=S)N(C(C(=O)O)c3ccccc3)C2=O)cc1` (stereo unspecified) here?
**A.** The EC50 was 33.2 µM (active).

**Q.** What about the AC50 [4] of the same compound?
**A.** Its AC50 is 4.48 µM (active).

**Q.** And the IC50 [5]?
**A.** The IC50 was 40.2 µM (active).

**Q.** What about the IC50 [6] of the same compound?
**A.** Its IC50 is 4.06 µM (active).

**Q.** And the IC50 [7]?
**A.** The IC50 was 14.7 µM (active).

**Q.** What about the IC50 [8] of the same compound?
**A.** The IC50 was 33.8 µM (active).

**Q.** Which EC50 [3] does the source give for `O=C1NC(=S)S/C1=C\c1cccc([N+](=O)[O-])c1` here?
**A.** Its EC50 is 10.8 µM (active).

**Q.** What about the IC50 [6] of the same compound?
**A.** Its IC50 is 16.7 µM (active).

**Q.** What about the IC50 [7] of the same compound?
**A.** The IC50 was > 20 µM (inactive).

**Q.** What does the source list for `COc1ccc(-c2c(C#Cc3ccsc3)c3cc(-c4ccc(C(N)=O)cc4)ccc3n2C)cc1`?
**A.** EC50 [9]: > 29.9 µM (inactive); IC50 [10]: 0.233 µM (active); IC50 [11]: > 29.9 µM (inactive); EC50 [12]: > 29.9 µM (inactive)

**Q.** Which results are given for `CCOC(=O)[C@]12CCC=C1N(Cc1ccc3c(c1)OCO3)C(=O)[C@H](CC(=O)NCCc1ccccc1OC)C2`?
**A.** EC50 [13]: 7.51 µM (active); EC50 [14]: > 29.9 µM (inactive); IC50 [15]: 6.46 µM (active); IC50 [16]: > 29.9 µM (inactive)

**Q.** What does the source list for `COc1cccc(-c2nc(CN3CCN(C(=O)c4ccco4)CC3)c(C)o2)c1OC`?
**A.** EC50 [17]: 92.5 µM (inactive); EC50 [18]: 20 µM (inactive)

From ChEMBL document CHEMBL1201862, “PubChem BioAssay data set” (2004)
